Test results reported in PMC10850145, “Hormonal steroids induce multidrug resistance and stress response genes in Neisseria gonorrhoeae by binding to MtrR” (Nature Communications, 2024).
Values joined by “and” are separate entries in the source; they are usually repeats but may differ in a detail not shown here. Identical values can stand only once. Like-named read-outs stand apart in the source and are kept apart here.

Test system: mtrC-lacZ expression
Format: cell-based, Neisseria gonorrhoeae
Details: for Plate-6 (Testosterone) Miller units, Mean / Plate-6 (Testosterone) Miller units: left (mtrC) half of sheet; for β-galactosidase activity, Mean / β-galactosidase activity, single replicate: mtrCDE block (c1-c37), ΔmtrR + mtrR R176E in trans
[1] = WT, testosterone 6.25 µM, right block Plate-4
[2] = WT, testosterone 25 µM, right block Plate-4
[3] = WT, testosterone 50 µM, right block Plate-4
[4] = fourth strain (lower plate half, wells 7-12; not named), testosterone 6.25 µM, right block Plate-4
[5] = fourth strain (lower plate half, wells 7-12; not named), testosterone 12.5 µM, right block Plate-4
[6] = mtrC-lacZ, ΔmtrR + mtrR D171A in trans, 6.25 µM hormone, single replicate
[7] = mtrC-lacZ, ΔmtrR + mtrR D171A in trans, 12.5 µM hormone, single replicate
[8] = mtrC-lacZ, ΔmtrR + mtrR D171A in trans, 25 µM hormone, single replicate
[9] = mtrC-lacZ, ΔmtrR + mtrR D171A in trans, 50 µM hormone, single replicate
[10] = mtrC-lacZ, ΔmtrR + mtrR WT in trans, 6.25 µM hormone, single replicate
[11] = mtrC-lacZ, ΔmtrR + mtrR WT in trans, 12.5 µM hormone, single replicate
[12] = mtrC-lacZ, ΔmtrR + mtrR WT in trans, 25 µM hormone, single replicate
[13] = mtrC-lacZ, ΔmtrR + mtrR WT in trans, 50 µM hormone, single replicate
[14] = mtrCDE, fourth strain (lower plate half, wells 7-12; not named), testosterone 1 µM, left block Plate-4
[15] = mtrCDE, fourth strain (lower plate half, wells 7-12; not named), testosterone 10 µM, left block Plate-4
[16] = mtrCDE, fourth strain (lower plate half, wells 7-12; not named), testosterone 25 µM, left block Plate-4
[17] = mtrCDE, fourth strain (lower plate half, wells 7-12; not named), testosterone 50 µM, left block Plate-4
[18] = mtrCDE, fourth strain (lower plate half, wells 7-12; not named), testosterone 100 µM, left block Plate-4

C[C@]12CC[C@H]3[C@@H](CCC4=CC(=O)CC[C@@]43C)[C@@H]1CC[C@@H]2O [Testosterone, testosterone]
Miller units, Mean (6.25 µM hormone, plate columns 1-6 (WT), mean of plate rows 1-4 (mtrC)): 141 Miller units | Miller units (6.25 µM hormone, plate columns 1-6 (WT), plate rows 1-4 (mtrC), single well): 164 Miller units and 134 Miller units and 127 Miller units and 139 Miller units | Miller units (6.25 µM hormone, plate columns 7-12 (second strain not given), plate rows 1-4 (mtrC), single well): 276 Miller units and 252 Miller units and 246 Miller units and 285 Miller units | Miller units, Mean (6.25 µM hormone, plate columns 7-12 (second strain), mean of plate rows 1-4 (mtrC)): 265 Miller units | Plate-6 (Testosterone) Miller units, Mean (6.25 µM, plate column 3, mean of plate rows 5-8): 43 Miller units | Plate-6 (Testosterone) Miller units (6.25 µM, plate column 3, plate rows 5-8, single wells): 39 Miller units and 46 Miller units and 47 Miller units | Plate-6 (Testosterone) Miller units, Mean (6.25 µM, plate column 9, mean of plate rows 5-8): 64 Miller units | Plate-6 (Testosterone) Miller units (6.25 µM, single wells): 55 Miller units and 57 Miller units and 65 Miller units and 80 Miller units | Miller units, Mean (12.5 µM hormone, plate columns 1-6 (WT), mean of plate rows 1-4 (mtrC)): 166 Miller units | Miller units (12.5 µM hormone, plate columns 1-6 (WT), plate rows 1-4 (mtrC), single well): 186 Miller units and 164 Miller units and 155 Miller units and 161 Miller units | Miller units (12.5 µM hormone, plate columns 7-12 (second strain not given), plate rows 1-4 (mtrC), single well): 296 Miller units and 248 Miller units and 237 Miller units and 196 Miller units | Miller units, Mean (12.5 µM hormone, plate columns 7-12 (second strain), mean of plate rows 1-4 (mtrC)): 244 Miller units | Plate-6 (Testosterone) Miller units, Mean (12.5 µM, plate column 4, mean of plate rows 5-8): 52 Miller units | Plate-6 (Testosterone) Miller units (12.5 µM, plate column 4, plate rows 5-8, single wells): 51 Miller units and 50 Miller units and 56 Miller units and 52 Miller units | Plate-6 (Testosterone) Miller units, Mean (12.5 µM, plate column 10, mean of plate rows 5-8): 62 Miller units | Plate-6 (Testosterone) Miller units (12.5 µM, plate column 10, plate rows 5-8, single wells): 58 Miller units and 54 Miller units and 63 Miller units and 74 Miller units | Miller units, Mean (25 µM hormone, plate columns 1-6 (WT), mean of plate rows 1-4 (mtrC)): 178 Miller units | Miller units (25 µM hormone, plate columns 1-6 (WT), plate rows 1-4 (mtrC), single well): 189 Miller units and 186 Miller units and 165 Miller units and 170 Miller units | Miller units (25 µM hormone, plate columns 7-12 (second strain not given), plate rows 1-4 (mtrC), single well): 284 Miller units and 276 Miller units and 289 Miller units and 254 Miller units | Miller units, Mean (25 µM hormone, plate columns 7-12 (second strain), mean of plate rows 1-4 (mtrC)): 276 Miller units | Plate-6 (Testosterone) Miller units, Mean (25 µM, plate column 5, mean of plate rows 5-8): 63 Miller units | Plate-6 (Testosterone) Miller units (25 µM, plate column 5, plate rows 5-8, single wells): 68 Miller units and 55 Miller units and 57 Miller units and 70 Miller units | Plate-6 (Testosterone) Miller units, Mean (25 µM, plate column 11, mean of plate rows 5-8): 65 Miller units | Plate-6 (Testosterone) Miller units (25 µM, plate column 11, plate rows 5-8, single wells): 64 Miller units and 60 Miller units and 68 Miller units and 67 Miller units | Miller units, Mean (50 µM hormone, plate columns 1-6 (WT), mean of plate rows 1-4 (mtrC)): 195 Miller units | Miller units (50 µM hormone, plate columns 1-6 (WT), plate rows 1-4 (mtrC), single well): 222 Miller units and 215 Miller units and 166 Miller units and 177 Miller units | Miller units (50 µM hormone, plate columns 7-12 (second strain not given), plate rows 1-4 (mtrC), single well): 310 Miller units and 287 Miller units and 255 Miller units and 237 Miller units | Miller units, Mean (50 µM hormone, plate columns 7-12 (second strain), mean of plate rows 1-4 (mtrC)): 272 Miller units | Plate-6 (Testosterone) Miller units, Mean (50 µM, plate column 6, mean of plate rows 5-8): 68 Miller units | Plate-6 (Testosterone) Miller units (50 µM, plate column 6, plate rows 5-8, single wells): 76 Miller units and 71 Miller units and 62 Miller units and 63 Miller units | Plate-6 (Testosterone) Miller units, Mean (50 µM, plate column 12, mean of plate rows 5-8): 57 Miller units | Plate-6 (Testosterone) Miller units (50 µM, single wells): 65 Miller units and 49 Miller units and 56 Miller units and 58 Miller units | Miller units, Mean (Mean of plate rows 1-4, plate columns 1-6 (first strain), 6.25 µM hormone): 69 Miller units | Miller units, Mean (Mean of plate rows 1-4, plate columns 1-6 (first strain), 12.5 µM hormone): 81 Miller units | Miller units, Mean (Mean of plate rows 1-4, plate columns 1-6 (first strain), 25 µM hormone): 98 Miller units | Miller units, Mean (Mean of plate rows 1-4, plate columns 1-6 (first strain), 50 µM hormone): 117 Miller units | Miller units, Mean (Mean of plate rows 1-4, plate columns 7-12 (second strain), 6.25 µM hormone): 96 Miller units | Miller units, Mean (Mean of plate rows 1-4, plate columns 7-12 (second strain), 12.5 µM hormone): 102 Miller units | Miller units, Mean (Mean of plate rows 1-4, plate columns 7-12 (second strain), 25 µM hormone): 112 Miller units | Miller units, Mean (Mean of plate rows 1-4, plate columns 7-12 (second strain), 50 µM hormone): 119 Miller units | Miller units, Mean [1]: 81 Miller units | Miller units, single replicate [1]: 103 Miller units and 88 Miller units | Miller units, single replicate (WT, testosterone 12.5 µM, right block Plate-4): 126 Miller units | Miller units, Mean [2]: 130 Miller units | Miller units, single replicate [2]: 144 Miller units and 138 Miller units | Miller units, Mean [3]: 134 Miller units | Miller units, single replicate [3]: 161 Miller units and 150 Miller units | induction of mtrC expression (complemented (MtrR+) strains, increasing hormone): could be induced | Miller units, Mean [4]: 47 Miller units | Miller units, single replicate [4]: 46 Miller units | Miller units, Mean [5]: 55 Miller units | Miller units, single replicate [5]: 56 Miller units | Miller units, Mean (fourth strain (lower plate half, wells 7-12; not named), testosterone 25 µM, right block Plate-4): 85 Miller units | Miller units, Mean (fourth strain (lower plate half, wells 7-12; not named), testosterone 50 µM, right block Plate-4): 79 Miller units | induction of mtrC expression (loss of MtrR or MtrR-D171A strain): abrogated | Miller units, Mean (mtrC-lacZ, WT, 6.25 µM hormone): 141 Miller units | Miller units, Mean (mtrC-lacZ, WT, 12.5 µM hormone): 166 Miller units | Miller units, Mean (mtrC-lacZ, WT, 25 µM hormone): 178 Miller units | Miller units, Mean (mtrC-lacZ, WT, 50 µM hormone): 195 Miller units | Miller units [6]: 162 Miller units | β-galactosidase activity (Miller units) [6]: 162 Miller units and 167 Miller units and 161 Miller units and 191 Miller units | Miller units [7]: 176 Miller units | β-galactosidase activity (Miller units) [7]: 176 Miller units and 177 Miller units and 161 Miller units and 186 Miller units | Miller units [8]: 185 Miller units | β-galactosidase activity (Miller units) [8]: 185 Miller units and 179 Miller units and 168 Miller units and 147 Miller units | Miller units [9]: 166 Miller units | β-galactosidase activity (Miller units) [9]: 166 Miller units and 158 Miller units and 156 Miller units | Miller units [10]: 108 Miller units and 127 Miller units and 114 Miller units and 153 Miller units | β-galactosidase activity (Miller units) [10]: 108 Miller units and 127 Miller units and 114 Miller units and 153 Miller units | Miller units [11]: 125 Miller units and 124 Miller units and 120 Miller units and 149 Miller units | β-galactosidase activity (Miller units) [11]: 125 Miller units and 124 Miller units and 120 Miller units and 149 Miller units | Miller units [12]: 133 Miller units and 137 Miller units and 127 Miller units | β-galactosidase activity (Miller units) [12]: 133 Miller units and 137 Miller units and 127 Miller units | Miller units [13]: 146 Miller units and 140 Miller units and 175 Miller units | β-galactosidase activity (Miller units) [13]: 146 Miller units and 140 Miller units and 175 Miller units | β-galactosidase activity (Miller units) (mtrC-lacZ, ΔmtrR strain, 6.25 µM hormone, single replicate): 246 Miller units | β-galactosidase activity (Miller units) (mtrC-lacZ, ΔmtrR strain, 12.5 µM hormone, single replicate): 237 Miller units | β-galactosidase activity (Miller units) (mtrC-lacZ, ΔmtrR strain, 25 µM hormone, single replicate): 289 Miller units | β-galactosidase activity (Miller units) (mtrC-lacZ, ΔmtrR strain, 50 µM hormone, single replicate): 255 Miller units | Miller units, Mean (mtrC-lacZ, ΔmtrR, 6.25 µM hormone): 265 Miller units | Miller units, Mean (mtrC-lacZ, ΔmtrR, 12.5 µM hormone): 244 Miller units | Miller units, Mean (mtrC-lacZ, ΔmtrR, 25 µM hormone): 276 Miller units | Miller units, Mean (mtrC-lacZ, ΔmtrR, 50 µM hormone): 272 Miller units | β-galactosidase activity, Mean (1 µM): 178 Miller units | β-galactosidase activity, single replicate (1 µM): 184 Miller units and 192 Miller units and 127 Miller units and 209 Miller units | β-galactosidase activity, Mean (10 µM): 206 Miller units | β-galactosidase activity, single replicate (10 µM): 290 Miller units and 186 Miller units and 155 Miller units and 194 Miller units | β-galactosidase activity, single replicate (25 µM): 208 Miller units and 213 Miller units and 178 Miller units and 198 Miller units | β-galactosidase activity, Mean (50 µM): 224 Miller units | β-galactosidase activity, single replicate (50 µM): 262 Miller units and 219 Miller units and 198 Miller units and 217 Miller units | β-galactosidase activity, Mean (100 µM): 238 Miller units | β-galactosidase activity, single replicate (100 µM): 255 Miller units and 223 Miller units and 213 Miller units and 260 Miller units | Miller units, Mean (mtrCDE, WT, testosterone 1 µM, left block Plate-4): 138 Miller units | Miller units, Mean (mtrCDE, WT, testosterone 10 µM, left block Plate-4): 235 Miller units | Miller units, Mean (mtrCDE, WT, testosterone 25 µM, left block Plate-4): 264 Miller units | Miller units, Mean (mtrCDE, WT, testosterone 50 µM, left block Plate-4): 229 Miller units | Miller units, Mean (mtrCDE, WT, testosterone 100 µM, left block Plate-4): 248 Miller units | Miller units, Mean [14]: 157 Miller units | Miller units, single replicate [14]: 182 Miller units | Miller units, Mean [15]: 190 Miller units | Miller units, single replicate [15]: 196 Miller units | Miller units, Mean [16]: 192 Miller units | Miller units, single replicate [16]: 225 Miller units and 177 Miller units | Miller units, Mean [17]: 201 Miller units | Miller units, single replicate [17]: 192 Miller units and 186 Miller units | Miller units, Mean [18]: 240 Miller units | Miller units, single replicate [18]: 256 Miller units and 229 Miller units | Miller units, Mean (mtrCDE, third strain (lower plate half, wells 1-6; not named), testosterone 1 µM, left block Plate-4): 107 Miller units | Miller units, Mean (mtrCDE, third strain (lower plate half, wells 1-6; not named), testosterone 10 µM, left block Plate-4): 177 Miller units | Miller units, Mean (mtrCDE, third strain (lower plate half, wells 1-6; not named), testosterone 25 µM, left block Plate-4): 181 Miller units | Miller units, Mean (mtrCDE, third strain (lower plate half, wells 1-6; not named), testosterone 50 µM, left block Plate-4): 213 Miller units | Miller units, Mean (mtrCDE, third strain (lower plate half, wells 1-6; not named), testosterone 100 µM, left block Plate-4): 227 Miller units | Miller units, Mean (mtrCDE, ΔmtrR, testosterone 1 µM, left block Plate-4): 334 Miller units | Miller units, Mean (mtrCDE, ΔmtrR, testosterone 10 µM, left block Plate-4): 358 Miller units
